CH4 permeability | CO2 permeability | N2 permeability | O2 permeability | H2 permeability | SMILES
4.66 Barrer | 132 Barrer | 5.93 Barrer | 26.1 Barrer | – | *c1cccc(C(c2cccc(-c3nnc(*)n3-c3ccccc3)c2)(C(F)(F)F)C(F)(F)F)c1 (repeat unit)
0.78 Barrer | 21 Barrer | 1.2 Barrer | 5.5 Barrer | 42 Barrer | *Nc1ccc(C(c2ccc(NC(=O)c3cc(C(*)=O)cc(-c4ccccc4)c3)cc2)(C(F)(F)F)C(F)(F)F)cc1 (repeat unit)
0.1 Barrer | 3.1 Barrer | 0.0986 Barrer | 0.68 Barrer | 9.2 Barrer | *C(=O)c1ccc(C2(c3ccc(C(=O)c4ccc(Oc5ccc(C(=O)c6ccc(Oc7ccc(*)cc7)cc6)cc5)cc4)cc3)OC(=O)c3ccccc32)cc1 (repeat unit)
0.349 Barrer | 17.9 Barrer | 0.499 Barrer | 3.53 Barrer | – | *c1cc(C)c(N2C(=O)c3ccc(C(c4ccc5c(c4)C(=O)N(*)C5=O)(C(F)(F)F)C(F)(F)F)cc3C2=O)c(C)c1 (repeat unit)
– | – | 0.549 Barrer | 3.02 Barrer | 38 Barrer | *c1c(C)cc(-c2cc(C)c(N3C(=O)c4ccc(C(=O)Oc5ccc(C(c6ccc(OC(=O)c7ccc8c(c7)C(=O)N(*)C8=O)cc6)(C(F)(F)F)C(F)(F)F)cc5)cc4C3=O)c(C)c2)cc1C (repeat unit)
0.08 Barrer | 5.1 Barrer | 0.261 Barrer | 1.8 Barrer | – | *c1cccc(C(c2cccc(N3C(=O)c4ccc(C(c5ccc6c(c5)C(=O)N(*)C6=O)(C(F)(F)F)C(F)(F)F)cc4C3=O)c2)(C(F)(F)F)C(F)(F)F)c1 (repeat unit)
0.9 Barrer | 21 Barrer | 0.81 Barrer | 4.5 Barrer | – | *Nc1ccc(C(C)(C)c2ccc(NC(=O)c3ccc(Oc4cc(C(C)(C)C)c(Oc5ccc(C(*)=O)cc5)cc4C(C)(C)C)cc3)c(C)c2)cc1C (repeat unit)
46 Barrer | 1800 Barrer | 85 Barrer | 421 Barrer | 1990 Barrer | *c1ccc2c(c1)-c1nc3ccc(-c4ccc5c(c4)nc4n5C(=O)c5cc(C(c6ccc(-c7nc8cc(C(c9ccc%10oc(-c%11ccc(C(*)(C(F)(F)F)C(F)(F)F)cc%11)nc%10c9)(C(F)(F)F)C(F)(F)F)ccc8o7)cc6)(C(F)(F)F)C(F)(F)F)ccc5-4)cc3n1C2=O (repeat unit)
6600 Barrer | 11400 Barrer | 2700 Barrer | 3900 Barrer | 7700 Barrer | *C(=C(*)c1ccc2c(c1)C(C)(C)CCC2(C)C)c1ccccc1 (repeat unit)
0.123 Barrer | 4.21 Barrer | 0.191 Barrer | 1.43 Barrer | 43 Barrer | *OC(=O)Oc1c(Br)cc(C(C)(C)c2cc(Br)c(*)c(Br)c2)cc1Br (repeat unit)
69 Barrer | 1310 Barrer | 71 Barrer | 308 Barrer | 1600 Barrer | *c1c(C)cc2c(c1C)C1c3ccccc3C2c2cc(C)c(N3C(=O)C4C5C=CC(C6C(=O)N(*)C(=O)C56)C4C3=O)c(C)c21 (repeat unit)
6.1 Barrer | 67.7 Barrer | 3.18 Barrer | 11.9 Barrer | 54.4 Barrer | *OCC1OC(COCC)C(*)C(OCC)C1OCC (repeat unit)
0.53 Barrer | 24 Barrer | 0.68 Barrer | 3.5 Barrer | – | *OC(=O)c1cccc(C(=O)Oc2c(C)cc(C(C)(C)c3cc(C)c(O*)c(C)c3)cc2C)c1 (repeat unit)
1.41 Barrer | 66.3 Barrer | 2.37 Barrer | 12.5 Barrer | – | *c1cccc(C(c2cccc(-c3nnc(*)n3-c3ccc(O)cc3)c2)(C(F)(F)F)C(F)(F)F)c1 (repeat unit)
0.00041 Barrer | 0.0313 Barrer | 0.001 Barrer | 0.0096 Barrer | – | *c1ccc(-c2ccc(N3C(=O)c4ccc(-c5ccc6c(c5)C(=O)N(*)C6=O)cc4C3=O)c(O)c2)cc1O (repeat unit)
9.2 Barrer | 91 Barrer | 4.3 Barrer | 15 Barrer | 68 Barrer | *OC1OC(COCC)C(*)C(OCC)C1OCC (repeat unit)
0.54 Barrer | 27.6 Barrer | 1.22 Barrer | 7.9 Barrer | – | */N=C1/c2cc(C(c3ccc4c(c3)C(=O)n3c-4nc4c(Oc5ccc(*)c(*)c5)cccc43)(C(F)(F)F)C(F)(F)F)ccc2C(=O)N1* (repeat unit)
0.087 Barrer | 3.12 Barrer | 0.146 Barrer | 0.99 Barrer | – | *Oc1ccc(C(=O)c2ccccc2-c2ccccc2C(=O)c2ccc(Oc3ccc(C(c4ccc(*)cc4)(C(F)(F)F)C(F)(F)F)cc3)cc2)cc1 (repeat unit)
525 Barrer | 1900 Barrer | 200 Barrer | 455 Barrer | 1040 Barrer | *C(=C(*)c1ccc2c(c1)C(C)(C)c1ccccc1-2)c1ccc([Si](C)(C)C)cc1 (repeat unit)
1.68 Barrer | 45.3 Barrer | 1.78 Barrer | 11.7 Barrer | – | *c1ccc(Oc2ccc(-c3ccc(-c4ccc(Oc5ccc(N6C(=O)c7ccc(C(c8ccc9c(c8)C(=O)N(*)C9=O)(C(F)(F)F)C(F)(F)F)cc7C6=O)cc5)c(C(F)(F)F)c4)s3)cc2C(F)(F)F)cc1 (repeat unit)
1.9 Barrer | 62 Barrer | 2.4 Barrer | 12 Barrer | 100 Barrer | *c1ccc(C)c(-c2cc(C)c(-c3cc(*)ccc3C)cc2C)c1 (repeat unit)
122 Barrer | 1860 Barrer | 97 Barrer | 390 Barrer | 1480 Barrer | *c1c(C)cc2c(c1C)C1c3ccccc3C2c2cc(C)c(N3C(=O)c4ccc5c6c(ccc(c46)C3=O)C(=O)N(*)C5=O)c(C)c21 (repeat unit)
0.044 Barrer | 2.5 Barrer | 0.076 Barrer | 0.46 Barrer | – | *OC(=O)c1cccc(C(=O)Oc2ccc(C(C)(C)c3ccc(O*)c(C)c3)cc2C)c1 (repeat unit)
0.0278 Barrer | 1.41 Barrer | 0.0483 Barrer | 0.369 Barrer | – | *c1ccc(Cc2ccc(N3C(=O)c4ccc(-c5ccc6c(c5)C(=O)N(*)C6=O)cc4C3=O)c(C)c2)cc1C (repeat unit)
1.96 Barrer | 58.9 Barrer | 3.3 Barrer | – | – | *c1ccc(C2(c3ccc(N4C(=O)c5ccc(C(c6ccc7c(c6)C(=O)N(*)C7=O)(C(F)(F)F)C(F)(F)F)cc5C4=O)cc3)c3ccccc3-c3ccccc32)cc1 (repeat unit)
29100 Barrer | 36100 Barrer | 13100 Barrer | 15200 Barrer | 28500 Barrer | *C(=C(*)c1ccc2c(c1)C(C)(C)CC2(C)C)c1cc(F)cc(F)c1 (repeat unit)
0.515 Barrer | 19 Barrer | 0.982 Barrer | 5.27 Barrer | 46.7 Barrer | *c1ccc(Oc2ccc(C(c3ccc(Oc4ccc(N5C(=O)c6ccc(C(c7ccc8c(c7)C(=O)N(*)C8=O)(C(F)(F)F)C(F)(F)F)cc6C5=O)cc4)cc3)(C(F)(F)F)C(F)(F)F)cc2)cc1 (repeat unit)
– | 1100 Barrer | 150 Barrer | 300 Barrer | – | *C(=C(*)c1ccc(C(C)C)cc1)c1ccccc1 (repeat unit)
0.13 Barrer | 2.88 Barrer | 0.13 Barrer | 0.83 Barrer | 8.35 Barrer | *c1ccc(Oc2ccc(S(=O)(=O)c3ccc(Oc4ccc(S(*)(=O)=O)cc4)cc3)cc2)cc1 (repeat unit)

SMILES | CH4 permeability | CO2 permeability | N2 permeability | O2 permeability | H2 permeability
*CC(*)c1ccc(Br)cc1 (repeat unit) | 0.48 Barrer | 8.5 Barrer | 0.32 Barrer | 1.9 Barrer | –
*/C(C)=C(/*)[Si](C)(C)C(C)C (repeat unit) | 360 Barrer | 2200 Barrer | 170 Barrer | 460 Barrer | 1650 Barrer
*CCSS* (repeat unit) | – | 3.14 Barrer | – | 0.288 Barrer | 1.57 Barrer
*/C(C)=C(/*)[Si](C)(C)CC (repeat unit) | 1200 Barrer | 4600 Barrer | 490 Barrer | 970 Barrer | 1930 Barrer
*C1C(*)C2CC1C1CC([Si](C)(C)C)C21 (repeat unit) | 1010 Barrer | 5300 Barrer | 390 Barrer | 990 Barrer | 2060 Barrer
*[Si](C)(C)CCCCCC[Si](*)(C)C (repeat unit) | – | – | 81 Barrer | 182 Barrer | –
*CC(*)c1ccc(C[Si](C)(C)C)cc1 (repeat unit) | 7.8 Barrer | 79.8 Barrer | – | 19.9 Barrer | 54 Barrer
*CC(O)C* (repeat unit) | 0.019 Barrer | 0.4 Barrer | 0.015 Barrer | 0.1 Barrer | –
*CC=C(C*)[Si](C)(C)OC(C)C (repeat unit) | 3.1 Barrer | 23.2 Barrer | 1.5 Barrer | 6 Barrer | –
*Cc1ccc(C*)c(CC)c1 (repeat unit) | – | 1.89 Barrer | 0.0904 Barrer | 0.5 Barrer | 4.31 Barrer
*C(Cl)CCCC(*)S(=O)(=O)Cl (repeat unit) | – | – | 0.955 Barrer | 3.29 Barrer | 13.3 Barrer
*OCC(*)CCl (repeat unit) | 0.657 Barrer | 8 Barrer | 0.24 Barrer | – | –
*CC(*)c1ccccc1 (repeat unit) | 0.785 Barrer | 12.4 Barrer | 0.53 Barrer | 2.9 Barrer | 26.1 Barrer
*CC(*)OC(C)=O (repeat unit) | – | – | – | 0.488 Barrer | 9.19 Barrer
*CC(*)OCC1CCCCC1 (repeat unit) | – | 5.89 Barrer | 0.4 Barrer | 1.55 Barrer | –
